Reference: US8822530B2, “Sulfur derivatives as chemokine receptor modulators” (Allergan, Inc., priority 2010, dated 2014)

biological target: T1, CCR2 receptor (Homo sapiens, UniProt P41597); assay: Calcium activity assay on FLIPR Tetra in HEK-Gqi5 cells stably expressing CCR2; assay type: cell-based
T1 construct: expressed in transfected cells
Experimental: HEK-Gqi5 cells stably expressing CCR2 were cultured in DMEM high glucose, 10% FBS, 1% PSA, 400 μg/ml geneticin and 50 μg/ml hygromycin. Appropriate positive control chemokines (MCP-1, MIP1A or RANTES) was used as the positive control agonist for screening compound-induced calcium activity assayed on the FLIPR^Tetra. The drug plates were prepared in 384-well microplates using the EP3 and the MultiPROBE robotic liquid handling systems. Compounds were synthesized and tested for CCR2 activity.

T1 sequence (P41597 whole entry): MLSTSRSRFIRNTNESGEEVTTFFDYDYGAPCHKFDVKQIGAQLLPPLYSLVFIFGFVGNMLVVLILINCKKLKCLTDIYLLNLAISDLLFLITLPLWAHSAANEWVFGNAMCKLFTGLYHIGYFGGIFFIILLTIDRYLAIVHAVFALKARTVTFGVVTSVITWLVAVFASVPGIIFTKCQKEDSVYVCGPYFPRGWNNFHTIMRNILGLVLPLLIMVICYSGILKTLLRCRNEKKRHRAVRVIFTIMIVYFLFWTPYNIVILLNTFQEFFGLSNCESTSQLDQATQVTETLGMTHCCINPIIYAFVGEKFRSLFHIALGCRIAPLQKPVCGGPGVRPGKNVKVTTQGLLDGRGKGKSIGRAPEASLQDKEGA

Row | Structure (SMILES) | CCR2 % ANTAGONISM | IC50
1 | CS(=O)(=O)Nc1cccc(CSc2ccc(Cl)cc2NS(=O)(=O)c2cc3ccccc3o2)c1 [N-[5-chloro-2-({3-[(methylsulfonyl)amino]benzyl}sulfanyl)phenyl]-1-benzofuran-2-sulfonamide] | 90% | 1280 nM
2 | CS(=O)(=O)Nc1cccc(C[S+]([O-])c2ccc(Cl)cc2NS(=O)(=O)c2cc3ccccc3o2)c1 (stereo not shown) [N-[5-chloro-2-({3-[(methylsulfonyl)amino]benzyl}sulfinyl)phenyl]-1-benzofuran-2-sulfonamide] | 77% | 2420 nM
3 | O=C1CCc2cc(NS(=O)(=O)c3cc4ccccc4o3)c([S+]([O-])Cc3ccccc3)cc21 (stereo not shown) [N-[6-(benzylsulfinyl)-1-oxo-2,3-dihydro-1H-inden-5-yl]-1-benzofuran-2-sulfonamide] | 73% | –
4 | O=C1CCc2cc(NS(=O)(=O)c3cc4ccccc4o3)c(S(=O)(=O)Cc3ccccc3)cc21 [N-[6-(benzylsulfonyl)-1-oxo-2,3-dihydro-1H-inden-5-yl]-1-benzofuran-2-sulfonamide] | 45% | 2240 nM
5 | CC(=O)Nc1cccc(CSc2ccc(Cl)cc2NS(=O)(=O)c2cc3ccccc3o2)c1 [N-{3-[({2-[(1-benzofuran-2-ylsulfonyl)amino]-4-chlorophenyl}sulfanyl)methyl]phenyl}acetamide] | 96% | 379 nM
6 | CC(=O)Nc1cccc(C[S+]([O-])c2ccc(Cl)cc2NS(=O)(=O)c2cc3ccccc3o2)c1 (stereo not shown) [N-{3-[({2-[(1-benzofuran-2-ylsulfonyl)amino]-4-chlorophenyl}sulfinyl)methyl]phenyl}acetamide] | 95% | –
7 | COC(=O)c1ccccc1CSc1ccc(F)cc1NS(=O)(=O)c1cc2ccccc2o1 [methyl 2-[({2-[(1-benzofuran-2-ylsulfonyl)amino]-4-fluorophenyl}sulfanyl)methyl]benzoate] | 93% | 272 nM
8 | COC(=O)c1ccccc1C[S+]([O-])c1ccc(F)cc1NS(=O)(=O)c1cc2ccccc2o1 (stereo not shown) [methyl 2-[({2-[(1-benzofuran-2-ylsulfonyl)amino]-4-fluorophenyl}sulfinyl)methyl]benzoate] | 91% | 140 nM
9 | COC(=O)CCSc1ccc(Cl)cc1NS(=O)(=O)c1cc2ccccc2o1 [methyl 3-({2-[(1-benzofuran-2-ylsulfonyl)amino]-4-chlorophenyl}sulfanyl)propanoate] | 91% | 864 nM
10 | COC(=O)CC[S+]([O-])c1ccc(Cl)cc1NS(=O)(=O)c1cc2ccccc2o1 (stereo not shown) [methyl 3-({2-[(1-benzofuran-2-ylsulfonyl)amino]-4-chlorophenyl}sulfinyl)propanoate] | 99% | 217 nM
11 | COC(=O)CCSc1ccc(Cl)cc1NS(=O)(=O)c1ccc(Cl)cc1F [methyl 3-[(4-chloro-2-{[(4-chloro-2-fluorophenyl)sulfonyl]amino}phenyl)sulfanyl]propanoate] | 79% | 995 nM
12 | COC(=O)CC[S+]([O-])c1ccc(Cl)cc1NS(=O)(=O)c1ccc(Cl)cc1F (stereo not shown) [methyl 3-[(4-chloro-2-{[(4-chloro-2-fluorophenyl)sulfonyl]amino}phenyl)sulfinyl]propanoate] | 93% | 98 nM

Continued, values first:

Row | CCR2 % ANTAGONISM | IC50 | Structure (SMILES)
13 | 91% | 6570 nM | CS(=O)(=O)Nc1cccc(CS(=O)(=O)c2ccc(Cl)cc2NS(=O)(=O)c2cc3ccccc3o2)c1 [N-[5-chloro-2-({3-[(methylsulfonyl)amino]benzyl}sulfonyl)phenyl]-1-benzofuran-2-sulfonamide]
14 | 100% | 854 nM | CC(=O)Nc1cccc(CS(=O)(=O)c2ccc(Cl)cc2NS(=O)(=O)c2cc3ccccc3o2)c1 [N-{3-[({2-[(1-benzofuran-2-ylsulfonyl)amino]-4-chlorophenyl}sulfonyl)methyl]phenyl}acetamide]
15 | 88% | 2380 nM | COC(=O)c1ccccc1CSc1ccc(Cl)cc1NS(=O)(=O)c1ccc(Cl)c(C(F)(F)F)c1 [methyl 2-({[4-chloro-2-({[4-chloro-3-(trifluoromethyl)phenyl]sulfonyl}amino)phenyl]sulfanyl}methyl)benzoate]
16 | 101% | 274 nM | COC(=O)c1ccccc1C[S+]([O-])c1ccc(Cl)cc1NS(=O)(=O)c1ccc(Cl)c(C(F)(F)F)c1 (stereo not shown) [methyl 2-({[4-chloro-2-({[4-chloro-3-(trifluoromethyl)phenyl]sulfonyl}amino)phenyl]sulfinyl}methyl)benzoate]
17 | 82% | 515 nM | COC(=O)c1ccccc1CS(=O)(=O)c1ccc(Cl)cc1NS(=O)(=O)c1ccc(Cl)c(C(F)(F)F)c1 [methyl 2-({[4-chloro-2-({[4-chloro-3-(trifluoromethyl)phenyl]sulfonyl}amino)phenyl]sulfonyl}methyl)benzoate]
18 | 90% | 41 nM | COC(=O)c1ccccc1CS(=O)(=O)c1ccc(F)cc1NS(=O)(=O)c1cc2ccccc2o1 [methyl 2-[({2-[(1-benzofuran-2-ylsulfonyl)amino]-4-fluorophenyl}sulfonyl)methyl]benzoate]
19 | 96% | 225 nM | COC(=O)CCS(=O)(=O)c1ccc(Cl)cc1NS(=O)(=O)c1cc2ccccc2o1 [methyl 3-({2-[(1-benzofuran-2-ylsulfonyl)amino]-4-chlorophenyl}sulfonyl)propanoate]
20 | 57% | 1360 nM | COC(=O)c1cccc(CSc2ccc(Cl)cc2NS(=O)(=O)c2ccc(Cl)c(C(F)(F)F)c2)c1 [methyl 3-({[4-chloro-2-({[4-chloro-3-(trifluoromethyl)phenyl]sulfonyl}amino)phenyl]sulfanyl}methyl)benzoate]
21 | 93% | 3110 nM | COC(=O)c1cccc(C[S+]([O-])c2ccc(Cl)cc2NS(=O)(=O)c2ccc(Cl)c(C(F)(F)F)c2)c1 (stereo not shown) [methyl 3-({[4-chloro-2-({[4-chloro-3-(trifluoromethyl)phenyl]sulfonyl}amino)phenyl]sulfinyl}methyl)benzoate]
22 | 55% | 2970 nM | COC(=O)c1cccc(CS(=O)(=O)c2ccc(Cl)cc2NS(=O)(=O)c2ccc(Cl)c(C(F)(F)F)c2)c1 [methyl 3-({[4-chloro-2-({[4-chloro-3-(trifluoromethyl)phenyl]sulfonyl}amino)phenyl]sulfonyl}methyl)benzoate]
23 | 82% | 212 nM | COC(=O)CCS(=O)(=O)c1ccc(Cl)cc1NS(=O)(=O)c1ccc(Cl)cc1F [methyl 3-[(4-chloro-2-{[(4-chloro-2-fluorophenyl)sulfonyl]amino}phenyl)sulfonyl]propanoate]
24 | 43% | 657 nM | CC(C)(C)OC(=O)CNC(=O)c1ccc(CSc2ccc(Cl)cc2NS(=O)(=O)c2ccc(Cl)c(C(F)(F)F)c2)cc1 [tert-butyl ({[4-({[4-chloro-2-({[4-chloro-3-(trifluoromethyl)phenyl]sulfonyl}amino)phenyl]sulfanyl}methyl)phenyl]carbonyl}amino)acetate]
25 | 93% | – | CC(C)(C)OC(=O)CNC(=O)c1ccc(C[S+]([O-])c2ccc(Cl)cc2NS(=O)(=O)c2ccc(Cl)c(C(F)(F)F)c2)cc1 (stereo not shown) [tert-butyl ({[4-({[4-chloro-2-({[4-chloro-3-(trifluoromethyl)phenyl]sulfonyl}amino)phenyl]sulfinyl}methyl)phenyl]carbonyl}amino)acetate]
26 | 77% | 2660 nM | CC(C)(C)OC(=O)CNC(=O)c1ccc(CS(=O)(=O)c2ccc(Cl)cc2NS(=O)(=O)c2ccc(Cl)c(C(F)(F)F)c2)cc1 [tert-butyl ({[4-({[4-chloro-2-({[4-chloro-3-(trifluoromethyl)phenyl]sulfonyl}amino)phenyl]sulfonyl}methyl)phenyl]carbonyl}amino)acetate]
